# US11364248B2 (AMGEN INC., priority 2017, dated 2022)
# Target: Mcl-1/Bim interaction (Homo sapiens (Human), UniProt Q07820)
# Assay: Cell Free Mcl-1: Bim Affinity Assay (Mcl-1 HTRF)
# Type: binding
# Conditions: TR-FRET, recombinant human Mcl-1(171-327), biotin-Bim(51-76); read-out: Mel-1 HTRF IC50
# Procedure: Cell Free Mcl-1: Bim Affinity Assay (Mcl-1 HTRF)
# The inhibition of the Mcl-1/Bim interaction was measured using a time-resolved fluorescence resonance energy transfer (TR-FRET) assay. The recombinant human Mcl-1 (C-terminally 6×His tagged Mcl-1 containing residues 171-327) was generated at Amgen Inc (Thousand Oaks, Calif.). A biotinylated peptide derived from human Bim (residues 51-76) was purchased from CPC Scientific (San Jose, Calif.). The TR-FRET assay was conducted in a 384-well white OptiPlate™ (PerkinElmer, Waltham, Mass.) in a total volume of 40 μL. The reaction mixture contained 0.1 nM Mcl-1(171-327), 0.05 nM biotin-Bim(51-76), 0.05 nM LANCER Eu-W1024 Anti-6×His (PerkinElmer), 0.072 nM Streptavidin-Xlent (Cisbio, Bedford, Mass.), and serially diluted test compounds in the binding buffer of 20 mM Hepes, pH 7.5, 150 mM NaCl, 0.016 mM Brij©35, and 1 mM dithiothreitol. Test compounds were pre-incubated with Mcl-1(171-327) and biotin-Bim (51-76) for 60 min before addition of the detection mixture (LANCE Eu-W1024 Anti-6×His and Streptavidin-Xlent). The reaction plates were further incubated overnight and then were read on an Envision® multimode reader (PerkinElmer). Fluorescence signals were measured at 620 nm (40-nm bandwidth) and 665 nm (7.5-nm bandwidth) with a 60 μs delay after excitation at 320 nm (75-nm bandwidth). The signal ratio at 665/620 nm corresponded to the Mcl-1/Bim interaction and was used in all data analyses. The IC50 values of test compounds were determined from duplicate data by analyzing competition curves using a four-parameter sigmoidal model in GraphPad Prism (GraphPad Software, San Diego, Calif.) or in Genedata Screener® (Genedata, Basel, Switzerland).
# Chain of Mcl-1/Bim interaction (Q07820 171-327): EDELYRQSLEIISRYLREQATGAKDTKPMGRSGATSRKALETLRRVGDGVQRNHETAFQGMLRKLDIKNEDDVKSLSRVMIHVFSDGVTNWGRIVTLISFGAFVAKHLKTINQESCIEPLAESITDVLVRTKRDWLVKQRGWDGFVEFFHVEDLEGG
row,IC50,SMILES
1,4.68 nM,C[C@@H]1[C@@H](C)CCC[C@H]([C@H]2OC[C@H](N3C(=O)c4ccccc4C3=O)CO2)[C@@H]2CC[C@H]2CN2C[C@@]3(CCCc4cc(Cl)ccc43)COc3ccc(cc32)C(=O)NS1(=O)=O (relative stereo) [Example 45]

# Tested on: OPM-2
# Assay: Cell Viability Assay (OPM-2 10 FBS)
# Type: cell-based, human
# Conditions: OPM-2 cells, 16 h, CellTiter-Glo, read-out: OPM-2 10% FBS IC50 IP
# Procedure: Cell Viability Assay (OPM-2 10 FBS)
# The human multiple myeloma cell line, OPM-2, was cultured in complete growth medium containing RPMI 1640 and 10% fetal bovine serum (FBS). Cells were seeded into 384-well plates at 3000 cells/well density in complete growth medium containing 10% FBS, and incubated for 16 h with serially diluted test compounds in a 37° C. incubator with 5% CO2. Cell viability was tested using CellTiter-Glo® assay (Promega, Madison, Wis.) according to the manufacturer recommendations. Luminescence was determined using an EnVision® Multilabel plate reader 25 min after the addition of detection reagent. IC50 values were then calculated with Xlfit using a logistical 4-parameter fit model in GraphPad Prism (GraphPad Software, San Diego, Calif.) or in Genedata Screener® (Genedata, Basel, Switzerland).
row,SMILES,IC50
1,"COC1CN([C@H]2CO[C@@H]([C@H]3CCC[C@H](C)[C@@H](C)S(=O)(=O)NC(=O)c4ccc5c(c4)N(C[C@@H]4CC[C@H]43)C[C@@]3(CCCc4cc(Cl)ccc43)CO5)OC2)C1 [Example 52, (1S,3′R,6′R,7′S,11′S,12′R)-6-chloro-7′-(cis-5-(3-methoxy-1-azetidinyl)-1,3-dioxan-2-yl)-11′,12′-dimethyl-3,4-dihydro-2H,15′H-spiro[naphthalene-1,22′-[20]oxa[13]thia[1,14]diazatetracyclo [14.7.2.0~3,6~.0~19,24~]pentacosa[16,18,24]trien]-15′-one 13′,13′-dioxide]",59 nM
2,"COC1CN([C@H]2CO[C@@H]([C@H]3CCC[C@H](C)[C@@H](C)S(=O)(=O)NC(=O)c4ccc5c(c4)N(C[C@@H]4CC[C@H]43)C[C@@]3(CCCc4cc(Cl)ccc43)CO5)OC2)C1 [Example 53, (1S,3′R,6′R,7′S,11′S,12′R)-6-chloro-7′-(cis-5-(3-methoxy-1-azetidinyl)-1,3-dioxan-2-yl)-11′,12′-dimethyl-3,4-dihydro-2H,15′H-spiro[naphthalene-1,22′-[20]oxa[13]thia[1,14]diazatetracyclo [14.7.2.0~3,6~.0~19,24~]pentacosa[16,18,24]trien]-15′-one 13′,13′-dioxide]",184 nM
3,"COC1CN([C@H]2CO[C@@H]([C@H]3CCC[C@H](C)[C@@H](C)S(=O)(=O)NC(=O)c4ccc5c(c4)N(C[C@@H]4CC[C@H]43)C[C@@]3(CCCc4cc(Cl)ccc43)CO5)OC2)C1 [Example 54, (1S,3′R,6′R,7′S,11′S,12′R)-6-chloro-7′-(cis-5-(3-methoxy-1-azetidinyl)-1,3-dioxan-2-yl)-11′,12′-dimethyl-3,4-dihydro-2H,15′H-spiro[naphthalene-1,22′-[20]oxa[13]thia[1,14]diazatetracyclo [14.7.2.0~3,6~.0~19,24~]pentacosa[16,18,24]trien]-15′-one 13′,13′-dioxide]",547 nM
4,"CCN(CC)[C@H]1CO[C@@H]([C@H]2CCC[C@H](C)[C@@H](C)S(=O)(=O)NC(=O)c3ccc4c(c3)N(C[C@@H]3CC[C@H]32)C[C@@]2(CCCc3cc(Cl)ccc32)CO4)OC1 [Example 57, (1S,3′R,6′R,7′S,11′S,12′R)-6-chloro-7′-(cis-5-(diethylamino)-1,3-dioxan-2-yl)-11′,12′-dimethyl-3,4-dihydro-2H,15′H-spiro[naphthalene-1,22′-[20]oxa[13]thia[1,14]diazatetracyclo [14.7.2.0~3,6~.0~19,24~]pentacosa[16,18,24]trien]-15′-one 13′,13′-dioxide]",164 nM
5,"CCN(CC)[C@H]1CO[C@@H]([C@H]2CCC[C@H](C)[C@@H](C)S(=O)(=O)NC(=O)c3ccc4c(c3)N(C[C@@H]3CC[C@H]32)C[C@@]2(CCCc3cc(Cl)ccc32)CO4)OC1 [Example 58, (1S,3′R,6′R,7′S,11′S,12′R)-6-chloro-7′-(cis-5-(diethylamino)-1,3-dioxan-2-yl)-11′,12′-dimethyl-3,4-dihydro-2H,15′H-spiro[naphthalene-1,22′-[20]oxa[13]thia[1,14]diazatetracyclo [14.7.2.0~3,6~.0~19,24~]pentacosa[16,18,24]trien]-15′-one 13′,13′-dioxide]",512 nM
6,"C[C@@H]1[C@@H](C)CCC[C@H]([C@H]2OC[C@@H](N3CC(N(C)C)C3)CO2)[C@@H]2CC[C@H]2CN2C[C@@]3(CCCc4cc(Cl)ccc43)COc3ccc(cc32)C(=O)NS1(=O)=O [Example 67, (1S,3′R,6′R,7′S,11′S,12′R)-6-chloro-7′-(cis-5-(3-(dimethylamino)-1-azetidinyl)-1,3-dioxan-2-yl)-11′,12′-dimethyl-3,4-dihydro-2H,15′H-spiro[naphthalene-1,22′-[20]oxa[13]thia[1,14]diazatetracyclo [14.7.2.0~3,6~.0~19,24~]pentacosa[16,18,24]trien]-15′-one 13′,13′-dioxide]",220 nM
7,"C[C@@H]1[C@@H](C)CCC[C@H]([C@H]2OC[C@@H](N3CC(N(C)C)C3)CO2)[C@@H]2CC[C@H]2CN2C[C@@]3(CCCc4cc(Cl)ccc43)COc3ccc(cc32)C(=O)NS1(=O)=O [Example 68, (1S,3′R,6′R,7′S,11′S,12′R)-6-chloro-7′-(cis-5-(3-(dimethylamino)-1-azetidinyl)-1,3-dioxan-2-yl)-11′,12′-dimethyl-3,4-dihydro-2H,15′H-spiro[naphthalene-1,22′-[20]oxa[13]thia[1,14]diazatetracyclo [14.7.2.0~3,6~.0~19,24~]pentacosa[16,18,24]trien]-15′-one 13′,13′-dioxide]",517 nM
8,"COCC[C@@H]1[C@@H](C)CCC[C@H]([C@H]2OC[C@@H](N(C)C)CO2)[C@@H]2CC[C@H]2CN2C[C@@]3(CCCc4cc(Cl)ccc43)COc3ccc(cc32)C(=O)NS1(=O)=O [Example 82, (1S,3′R,6′R,7′S,11′S,12′R)-6-chloro-7′-(cis-5-(dimethylamino)-1,3-dioxan-2-yl)-12′-(2-methoxyethyl)-11′-methyl-3,4-dihydro-2H,15′H-spiro[naphthalene-1,22′-[20]oxa[13]thia[1,14]diazatetracyclo [14.7.2.0~3,6~.0~19,24~]pentacosa[16,18,24]trien]-15′-one 13′,13′-dioxide]",33 nM
9,"C[C@@H]1CS(=O)(=O)NC(=O)c2ccc3c(c2)N(C[C@@H]2CC[C@H]2[C@@H]([C@H]2OC[C@@H](N(C)C)CO2)CC[C@@H]1C)C[C@@]1(CCCc2cc(Cl)ccc21)CO3 [Example 84, (1S,3′R,6′R,7′S,10′S,11′S)-6-chloro-7′-(cis-5-(dimethylamino)-1,3-dioxan-2-yl)-10′,11′-dimethyl-3,4-dihydro-2H,15′H-spiro[naphthalene-1,22′-[20]oxa[13]thia[1,14]diazatetracyclo [14.7.2.0~3,6~.0~19,24~]pentacosa[16,18,24]trien]-15′-one 13′,13′-dioxide]",145 nM
10,"C[C@@H]1CS(=O)(=O)NC(=O)c2ccc3c(c2)N(C[C@@H]2CC[C@H]2[C@@H]([C@H]2OC[C@@H](N(C)C)CO2)CC[C@@H]1C)C[C@@]1(CCCc2cc(Cl)ccc21)CO3 [Example 85, (1S,3′R,6′R,7′S,10′S,11′S)-6-chloro-7′-(cis-5-(dimethylamino)-1,3-dioxan-2-yl)-10′,11′-dimethyl-3,4-dihydro-2H,15′H-spiro[naphthalene-1,22′-[20]oxa[13]thia[1,14]diazatetracyclo [14.7.2.0~3,6~.0~19,24~]pentacosa[16,18,24]trien]-15′-one 13′,13′-dioxide]",1090 nM
11,"COC[C@@H]1[C@@H](C)CCC[C@H]([C@H]2OC[C@@H](N(C)C)CO2)[C@@H]2CC[C@H]2CN2C[C@@]3(CCCc4cc(Cl)ccc43)COc3ccc(cc32)C(=O)NS1(=O)=O [Example 91, (1S,3′R,6′R,7′S,11′S,12′S)-6-chloro-7′-(cis-5-(dimethylamino)-1,3-dioxan-2-yl)-12′-(methoxymethyl)-11′-methyl-3,4-dihydro-2H,15′H-spiro[naphthalene-1,22′-[20]oxa[13]thia[1,14]diazatetracyclo [14.7.2.0~3,6~.0~19,24~]pentacosa[16,18,24]trien]-15′-one 13′,13′-dioxide]",47 nM
12,"COC[C@@H]1[C@@H](C)CCC[C@H]([C@H]2OC[C@@H](N(C)C)CO2)[C@@H]2CC[C@H]2CN2C[C@@]3(CCCc4cc(Cl)ccc43)COc3ccc(cc32)C(=O)NS1(=O)=O [Example 92, (1S,3′R,6′R,7′S,11′S,12′S)-6-chloro-7′-(cis-5-(dimethylamino)-1,3-dioxan-2-yl)-12′-(methoxymethyl)-11′-methyl-3,4-dihydro-2H,15′H-spiro[naphthalene-1,22′-[20]oxa[13]thia[1,14]diazatetracyclo [14.7.2.0~3,6~.0~19,24~]pentacosa[16,18,24]trien]-15′-one 13′,13′-dioxide]",988 nM
